Active and inactive are the calls of the source.
Columns and labels:
[1] = target: Peroxisome proliferator-activated receptor gamma/Nuclear receptor corepressor 2 (Homo sapiens, UniProt P37231+Q9Y618); assay: Counterscreen for NR2E3 inverse agonists: TR-FRET-based biochemical high throughput dose response assay to identify inverse agonists of the interaction between peroxisome proliferator-activated receptor gamma (PPARg) and nuclear receptor co-repressor 2 (NCOR2).; type: functional
[2] = target: Photoreceptor-specific nuclear receptor (Homo sapiens, UniProt Q9Y5X4); assay: NR2E3 inverse agonists, dose response, biochemical, TR-FRET (AID 463256); type: functional
[3] = target: Genome polyprotein (Hepatitis C virus, UniProt Q2Q167); assay: HCV core protein dimerization inhibitors, dose response, biochemical, TR-FRET (AID 2159); design: species or system Hepacivirus hominis;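 note: blocks dimerization of HCV core protein measured by TR-FRET between tagged core106 pairs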
[4] = tested on: INS1; assay: beta cell apoptosis inhibitors, cytokine rescue, dose response, luminescence, retest (AID 449756); type: functional, cell-based; settings: Rattus norvegicus;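 note: cell death triggered by IL-1 beta plus TNF-alpha plus IFN-gamma mixture; protective hits raise ATP signal compared with cytokine alone wells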
[5] = target: T1, Caspase-6 (Homo sapiens, UniProt P55212); assay: human caspase-6 inhibitors, dose response, biochemical, VEID-R110 fluorescence, cherry-pick (AID 720632)
T1 sequence (P55212 whole entry): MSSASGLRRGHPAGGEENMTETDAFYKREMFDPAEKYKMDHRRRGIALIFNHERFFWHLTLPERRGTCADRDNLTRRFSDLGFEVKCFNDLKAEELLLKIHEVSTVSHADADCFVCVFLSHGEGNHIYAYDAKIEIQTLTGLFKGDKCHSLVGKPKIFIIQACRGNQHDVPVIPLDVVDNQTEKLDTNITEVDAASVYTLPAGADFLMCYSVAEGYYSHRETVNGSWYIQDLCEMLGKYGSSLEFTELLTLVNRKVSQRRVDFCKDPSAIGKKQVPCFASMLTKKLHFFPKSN

[6] = target: E3 ubiquitin-protein ligase Mdm2 (Homo sapiens, UniProt Q00987); assay: enhancers of MDM2-luciferase reporter signal, concentration-effect titration, project on inhibitors of MDM2 ubiquitin ligase, cellular assay, luminescent readout, 384-well plate format (AID 1394); type: functional;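 note: MDM2 E3 inhibitors raise luminescence so EC50 is for signal enhancement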
[7] = target: Glyceraldehyde-3-phosphate dehydrogenase (Homo sapiens, UniProt P04406)
[8] = target: T2, Bcl-2-related protein A1 (Mus musculus, UniProt Q07440); assay: Bfl-1 inhibitors blocking BH3 peptide binding, confirmation, biochemical, TR-FRET, mouse Bfl-1 (AID 621);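 note: TR-FRET binding of GST-Bfl-1 to FITC-labelled Bid peptide via terbium antibody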
T2 sequence (Q07440 whole entry): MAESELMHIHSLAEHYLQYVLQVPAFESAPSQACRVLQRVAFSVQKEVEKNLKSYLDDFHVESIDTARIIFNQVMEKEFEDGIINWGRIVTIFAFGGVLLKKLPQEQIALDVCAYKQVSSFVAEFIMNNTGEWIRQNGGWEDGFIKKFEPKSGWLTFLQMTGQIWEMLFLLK

[9] = target: T2, Bcl-2-related protein A1; assay: Bfl-1 binding inhibitors, SAR follow-up, biochemical, fluorescence polarization (AID 1070)
[10] = Luminescence Cell-Based Dose Confirmation HTS to Identify Inhibitors of Polyadenylation.; type: functional

Chain of Photoreceptor-specific nuclear receptor (Q9Y5X4 whole entry): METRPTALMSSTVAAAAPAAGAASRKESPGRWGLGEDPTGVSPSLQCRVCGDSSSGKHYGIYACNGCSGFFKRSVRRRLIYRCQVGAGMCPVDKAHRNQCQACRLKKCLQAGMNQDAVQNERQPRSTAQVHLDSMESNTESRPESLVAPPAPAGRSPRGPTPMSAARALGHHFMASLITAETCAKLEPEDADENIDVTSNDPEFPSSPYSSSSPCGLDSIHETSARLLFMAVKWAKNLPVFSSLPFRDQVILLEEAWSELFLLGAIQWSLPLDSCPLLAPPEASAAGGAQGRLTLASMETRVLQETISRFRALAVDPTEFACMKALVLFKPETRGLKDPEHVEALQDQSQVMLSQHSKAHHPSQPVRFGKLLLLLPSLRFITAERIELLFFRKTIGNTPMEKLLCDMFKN
Chain of Glyceraldehyde-3-phosphate dehydrogenase (P04406 whole entry): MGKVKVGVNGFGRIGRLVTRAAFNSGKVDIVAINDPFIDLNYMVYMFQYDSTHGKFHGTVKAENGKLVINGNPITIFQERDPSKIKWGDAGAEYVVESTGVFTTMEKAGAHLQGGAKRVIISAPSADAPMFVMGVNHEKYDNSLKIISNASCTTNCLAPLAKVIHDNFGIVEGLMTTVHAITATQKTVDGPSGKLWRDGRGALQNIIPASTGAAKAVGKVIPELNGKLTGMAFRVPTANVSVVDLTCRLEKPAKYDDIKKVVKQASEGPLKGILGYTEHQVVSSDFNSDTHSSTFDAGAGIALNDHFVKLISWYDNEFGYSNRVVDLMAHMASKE
Chain of Peroxisome proliferator-activated receptor gamma/Nuclear receptor corepressor 2 (P37231 whole entry): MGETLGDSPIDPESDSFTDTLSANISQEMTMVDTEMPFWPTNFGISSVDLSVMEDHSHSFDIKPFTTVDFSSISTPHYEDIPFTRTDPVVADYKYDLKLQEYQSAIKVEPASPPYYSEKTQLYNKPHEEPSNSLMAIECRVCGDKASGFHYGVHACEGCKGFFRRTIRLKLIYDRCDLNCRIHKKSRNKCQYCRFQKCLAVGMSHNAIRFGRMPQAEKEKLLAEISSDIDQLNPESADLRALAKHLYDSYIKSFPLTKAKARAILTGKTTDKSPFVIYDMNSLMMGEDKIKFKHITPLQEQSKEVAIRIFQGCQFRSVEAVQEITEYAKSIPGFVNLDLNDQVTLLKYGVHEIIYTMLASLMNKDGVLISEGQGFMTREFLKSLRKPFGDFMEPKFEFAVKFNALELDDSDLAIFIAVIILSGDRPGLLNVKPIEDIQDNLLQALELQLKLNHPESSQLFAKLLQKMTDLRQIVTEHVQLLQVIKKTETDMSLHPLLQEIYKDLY
Chain of Peroxisome proliferator-activated receptor gamma/Nuclear receptor corepressor 2 (Q9Y618 whole entry): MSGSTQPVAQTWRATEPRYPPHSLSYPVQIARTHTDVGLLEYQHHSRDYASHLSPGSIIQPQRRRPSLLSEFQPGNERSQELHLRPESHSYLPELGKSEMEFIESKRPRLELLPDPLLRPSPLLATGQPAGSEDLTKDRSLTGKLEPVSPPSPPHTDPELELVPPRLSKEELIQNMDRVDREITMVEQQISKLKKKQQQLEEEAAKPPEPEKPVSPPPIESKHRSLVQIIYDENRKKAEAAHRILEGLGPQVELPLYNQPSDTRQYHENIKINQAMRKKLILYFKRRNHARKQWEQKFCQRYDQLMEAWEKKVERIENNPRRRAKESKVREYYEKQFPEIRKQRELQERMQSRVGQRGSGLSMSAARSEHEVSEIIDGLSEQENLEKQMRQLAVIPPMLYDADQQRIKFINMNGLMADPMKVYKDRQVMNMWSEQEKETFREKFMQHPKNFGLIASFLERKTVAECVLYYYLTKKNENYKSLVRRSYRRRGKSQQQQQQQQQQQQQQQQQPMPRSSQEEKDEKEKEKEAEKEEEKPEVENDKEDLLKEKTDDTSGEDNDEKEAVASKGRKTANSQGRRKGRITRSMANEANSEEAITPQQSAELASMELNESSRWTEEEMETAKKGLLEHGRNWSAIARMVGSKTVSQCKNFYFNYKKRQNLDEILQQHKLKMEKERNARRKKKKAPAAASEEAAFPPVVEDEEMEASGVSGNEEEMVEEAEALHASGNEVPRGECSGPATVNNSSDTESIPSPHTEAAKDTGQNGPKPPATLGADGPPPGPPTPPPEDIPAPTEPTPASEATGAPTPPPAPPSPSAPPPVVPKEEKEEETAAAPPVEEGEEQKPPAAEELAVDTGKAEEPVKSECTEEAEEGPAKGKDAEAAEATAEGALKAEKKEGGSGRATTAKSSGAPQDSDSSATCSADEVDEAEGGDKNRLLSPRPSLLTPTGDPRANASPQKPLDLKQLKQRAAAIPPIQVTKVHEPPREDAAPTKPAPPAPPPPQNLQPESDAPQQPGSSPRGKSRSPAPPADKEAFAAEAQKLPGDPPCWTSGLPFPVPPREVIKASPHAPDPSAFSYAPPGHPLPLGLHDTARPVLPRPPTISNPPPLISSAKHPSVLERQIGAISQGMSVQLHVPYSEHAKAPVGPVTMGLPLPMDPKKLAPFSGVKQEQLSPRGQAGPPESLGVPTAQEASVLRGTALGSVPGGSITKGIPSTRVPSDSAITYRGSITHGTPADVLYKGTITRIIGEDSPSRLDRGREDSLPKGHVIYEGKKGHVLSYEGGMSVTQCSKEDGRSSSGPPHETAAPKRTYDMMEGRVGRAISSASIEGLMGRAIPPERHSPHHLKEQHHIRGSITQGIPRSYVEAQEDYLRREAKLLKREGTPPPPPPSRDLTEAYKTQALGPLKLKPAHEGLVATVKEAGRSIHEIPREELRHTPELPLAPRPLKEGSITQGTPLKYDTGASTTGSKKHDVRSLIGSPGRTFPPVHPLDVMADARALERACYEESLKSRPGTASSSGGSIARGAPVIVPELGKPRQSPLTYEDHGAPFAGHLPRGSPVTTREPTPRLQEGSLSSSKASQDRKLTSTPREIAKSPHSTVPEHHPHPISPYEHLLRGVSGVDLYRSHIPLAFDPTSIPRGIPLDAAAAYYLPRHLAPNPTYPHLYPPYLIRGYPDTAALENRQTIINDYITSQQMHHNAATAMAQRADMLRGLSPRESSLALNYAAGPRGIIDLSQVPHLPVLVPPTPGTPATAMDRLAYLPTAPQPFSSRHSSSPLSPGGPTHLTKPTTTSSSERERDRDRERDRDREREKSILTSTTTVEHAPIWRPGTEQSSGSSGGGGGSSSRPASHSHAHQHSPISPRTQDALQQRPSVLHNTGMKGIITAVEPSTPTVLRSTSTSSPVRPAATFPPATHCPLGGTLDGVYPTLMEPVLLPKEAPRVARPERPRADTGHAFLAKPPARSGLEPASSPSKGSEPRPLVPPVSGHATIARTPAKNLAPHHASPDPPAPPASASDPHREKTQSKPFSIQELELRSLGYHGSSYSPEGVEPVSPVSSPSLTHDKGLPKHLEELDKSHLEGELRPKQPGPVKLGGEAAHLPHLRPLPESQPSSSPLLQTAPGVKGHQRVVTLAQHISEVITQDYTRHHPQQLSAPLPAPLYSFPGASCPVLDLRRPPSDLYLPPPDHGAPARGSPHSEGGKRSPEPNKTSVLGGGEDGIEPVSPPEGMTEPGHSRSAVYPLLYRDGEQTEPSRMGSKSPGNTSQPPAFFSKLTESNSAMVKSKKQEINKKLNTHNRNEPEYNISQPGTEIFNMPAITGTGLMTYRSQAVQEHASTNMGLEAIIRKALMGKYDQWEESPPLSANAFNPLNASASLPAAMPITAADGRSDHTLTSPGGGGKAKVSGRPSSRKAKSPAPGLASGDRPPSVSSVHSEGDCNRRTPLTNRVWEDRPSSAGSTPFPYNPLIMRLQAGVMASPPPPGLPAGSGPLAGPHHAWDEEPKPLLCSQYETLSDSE
Chain of Genome polyprotein (Q2Q167 whole entry): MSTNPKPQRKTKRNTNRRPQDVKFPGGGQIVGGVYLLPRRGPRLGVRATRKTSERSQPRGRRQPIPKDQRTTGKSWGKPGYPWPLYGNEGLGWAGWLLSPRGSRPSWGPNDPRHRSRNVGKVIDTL
Chain of E3 ubiquitin-protein ligase Mdm2 (Q00987 whole entry): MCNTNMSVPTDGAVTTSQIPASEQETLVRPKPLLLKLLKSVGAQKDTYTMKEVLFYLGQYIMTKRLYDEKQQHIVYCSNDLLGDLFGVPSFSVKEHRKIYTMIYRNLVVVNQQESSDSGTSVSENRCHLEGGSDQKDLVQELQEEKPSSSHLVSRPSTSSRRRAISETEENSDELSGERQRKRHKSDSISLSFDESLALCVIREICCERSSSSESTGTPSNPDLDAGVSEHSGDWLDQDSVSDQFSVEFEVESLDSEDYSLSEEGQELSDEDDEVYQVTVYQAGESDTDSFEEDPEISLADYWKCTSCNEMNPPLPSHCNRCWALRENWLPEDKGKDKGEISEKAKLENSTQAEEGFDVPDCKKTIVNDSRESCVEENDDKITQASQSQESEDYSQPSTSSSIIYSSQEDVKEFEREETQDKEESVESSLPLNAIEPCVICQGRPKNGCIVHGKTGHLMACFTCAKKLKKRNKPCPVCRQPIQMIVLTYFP

**Q.** What does the source list for `COc1ccc2[nH]c(C(=O)Nc3ccc(F)cc3Br)cc2c1`?
**A.** IC50 [1]: > 39.9 µM (not active); IC50 [2]: > 39.9 µM (not active)

**Q.** Which IC50 [3] does the source give for `CC1=NN(c2ccc(C)c(C)c2)C(=O)/C1=C\C=C\c1ccc([N+](=O)[O-])o1` here?
**A.** Its IC50 is > 49.8 µM (not active).

**Q.** What about the AC50 [4] of the same compound?
**A.** The AC50 was 4.08 µM (active).

**Q.** What about the AC50 [5] of the same compound?
**A.** Its AC50 is 1.79 µM (active).

**Q.** Which EC50 [6] does the source give for `COc1ccc2[nH]c(C(=O)O)c(CCNC(C)=O)c2c1` here?
**A.** The EC50 was 390 nM (not active).

**Q.** Which IC50 [7] does the source give for `O=C1C(Cl)=C(Cl)C(=O)N1c1ccnc(Cl)c1` here?
**A.** Its IC50 is > 100 µM (not active).

**Q.** And the IC50 [8]?
**A.** Its IC50 is 39.9 µM (active).

**Q.** What about the IC50 [9] of the same compound?
**A.** The IC50 was > 100 µM (not active).

**Q.** With `COc1ccc(N2CCN(C(=O)c3ccc4c(c3)NC(=O)C(CSCc3ccc(C)cc3)N4)CC2)cc1` (stereo unspecified) as the compound, how does the IC50 [3] read?
**A.** Its IC50 is > 49.8 µM (not active).

**Q.** For `COc1ccc2no[n+]([O-])c2c1`, which EC50 [10] is on record?
**A.** Its EC50 is > 120 µM (not active).

**Q.** For `Cc1cc2c(s1)c1cnn(CC(=O)NCCc3ccccc3)c(=O)c1n2C`, which IC50 [1] is on record?
**A.** Its IC50 is 2.65 µM (active).

**Q.** What about the IC50 [2] of the same compound?
**A.** The IC50 was 2.52 µM (active).

**Q.** Which results are given for `CC1CN(C2=C(Cl)C(=O)N(c3ccc(Cl)c(Cl)c3)C2=O)CCN1` (stereo unspecified)?
**A.** IC50 [7]: > 100 µM (not active); IC50 [8]: 1.95 µM (active); IC50 [9]: 6.96 µM (active)

Reference: ChEMBL document CHEMBL1201862, “PubChem BioAssay data set” (2004)
